These results are taken from ChEMBL document CHEMBL1201862, “PubChem BioAssay data set” (2004).

Test in all cases: NCI anticancer screen, dose series, 48 h
The subject of experiment [1] is 786-0.
Experiment [2] has as its system A549.
The test system of experiment [3] is CAKI-1.
For experiment [4], the system named is CCRF-CEM.
For experiment [5], the system named is COLO 205.
Experiment [6] has as its system EKVX.
Experiment [7] deals with HOP-62.
The test system of experiment [8] is LOX IMVI.
The test system of experiment [9] is M14.
Experiment [10] deals with MCF7.
For experiment [11], the system named is MDA-N.
The subject of experiment [12] is NCI-H226.
For experiment [13], the system named is NCI-H23.
In experiment [14] the test system is OVCAR-4.
Experiment [15] relates to PC-3.
Experiment [16] has as its system SF-295.
In experiment [17] the test system is SW-620.
Experiment [18] relates to TK-10.
The subject of experiment [19] is UACC-62.
Experiment [20] has as its system UO-31.

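96-well plates; 48 h exposure; 5 concentrations. Endpoints by linear interpolation between flanking doses. Not reached: highest tested concentration assigned. GI50: concentration for 50% inhibition of growth.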 Active and inactive are the calls of the source. No stated cut-off is given here; in the data, active = GI50 up to about 1.1 µM and inactive = higher.

On to `N#Cc1c(NC(=O)C(F)(F)F)sc2c3c(=O)c4ccccc4c(=O)c=3oc3ccccc3c12`, for which the GI50 was 25.6 µM (inactive) in experiment [1]; 19 µM (inactive) in [2]; 15.4 µM (inactive) in experiment [3]; 4.24 µM (inactive) in [4]; 14.7 µM (inactive) in [5]; 24.6 µM (inactive) in experiment [6]. Besides, the GI50 in experiment [7] is 20.5 µM (inactive); in experiment [8], 13 µM (inactive); in experiment [9] it was 21.7 µM (inactive); in experiment [10], 20.2 µM (inactive); in experiment [11], 18.3 µM (inactive); in experiment [12], 8.02 µM (inactive). Besides, the GI50 was 9.84 µM (inactive) in experiment [13]; 14.7 µM (inactive) in experiment [14]; 8.93 µM (inactive) in experiment [15]; 11.7 µM (inactive) in [16]; 25.1 µM (inactive) in experiment [17]; 33 µM (inactive) in experiment [18]. Besides, the GI50 in experiment [19] is 7.55 µM (inactive); in [20], 19 µM (inactive).

`O=C(O)CCn1cnc2c(S)ncnc21`: the GI50 in experiment [1], in [2], in experiment [3], in [4], in experiment [5] and in experiment [6] was > 100 µM (inactive) each time. Further, the GI50 in [7], in [8], in experiment [9], in experiment [10], in experiment [11] and in experiment [12] was > 100 µM (inactive) in each case. In addition, the GI50 in [13], in [14], in experiment [15], in experiment [16], in [17] and in experiment [18] was > 100 µM (inactive) each time. Moreover, the GI50 in experiment [19] and in experiment [20] was > 100 µM (inactive) in each case.

Turning to `CC[C@@H](C)[C@H](NC(=O)[C@H](Cc1ccccc1)NCC(F)(F)F)C(=O)OC(C)(C)C`, the GI50 in [1] was > 100 µM (inactive); in experiment [2], > 100 µM (inactive); in experiment [3], > 100 µM (inactive); in [4] it was 74.8 µM (inactive); in experiment [5] it was > 100 µM (inactive); in experiment [6], > 100 µM (inactive). Besides, the GI50 in experiment [7] was > 100 µM (inactive); in experiment [8] it was > 100 µM (inactive); in [9], > 100 µM (inactive); in experiment [10] it was > 100 µM (inactive); in experiment [11] it was > 100 µM (inactive); in experiment [12], 19.6 µM (inactive). Besides, the GI50 in [13] was > 100 µM (inactive); in [14], 82.2 µM (inactive); in experiment [15], 91.6 µM (inactive); in [16], > 100 µM (inactive); in [17] it was > 100 µM (inactive); in [18], > 100 µM (inactive). For the same compound, the results for the GI50 in experiment [19] and in experiment [20] were 47.8 µM (inactive) and > 100 µM (inactive), respectively.

For `COC(=O)C(Cc1c[nH]c2ccccc12)NC1=Nc2ccncc2S(=O)(=O)N1c1ccccc1` (stereo not given), the GI50 in [1] was 33.3 µM (inactive); in experiment [2], 59 µM (inactive); in [3], 39.4 µM (inactive); in [4], 14.1 µM (inactive); in experiment [5] it was 17.6 µM (inactive); in experiment [6], > 100 µM (inactive). Besides, the GI50 in experiment [7] is 67.3 µM (inactive); in experiment [8], 28.2 µM (inactive); in [9], 35.6 µM (inactive); in experiment [10], 33.2 µM (inactive); in experiment [11], 45.1 µM (inactive); in experiment [12] it was 14.1 µM (inactive). Also, the GI50 is 41.5 µM (inactive) in experiment [13]; 24.7 µM (inactive) in experiment [14]; 29.1 µM (inactive) in experiment [15]; 52.1 µM (inactive) in experiment [16]; 28.1 µM (inactive) in experiment [17]; > 100 µM (inactive) in [18]. In addition, the figures for the GI50 in experiment [19] and in experiment [20] were 3.15 µM (inactive) and 32.6 µM (inactive), respectively.

Take `COC(=O)C1=C(OC(=O)/C(=C/c2ccccc2)c2ccc(Cl)cc2Cl)C(C(=O)OC)[C@@]2(O)[C@@H](C(=O)OC)[C@H](C)C[C@@H]1[C@@H]2C(=O)OC` (stereo not given in full): the GI50 in experiment [1], in [2], in experiment [3], in experiment [4], in experiment [5] and in experiment [6] was > 100 µM (inactive) throughout. The GI50 in experiment [7], in [8], in experiment [9], in experiment [10], in experiment [11] and in experiment [12] was > 100 µM (inactive) throughout. The GI50 in experiment [13], in experiment [14], in experiment [15], in experiment [16], in [17] and in experiment [18] was > 100 µM (inactive) throughout. Also, the GI50 in experiment [19] and in experiment [20] was > 100 µM (inactive) in each case.

As to `COc1ccc(NC(=S)N/N=C/c2cccc(C)n2)cc1`, the GI50 is 3.98 µM (inactive) in [1]; 5.22 µM (inactive) in experiment [2]; 4.25 µM (inactive) in [3]; 2.82 µM (inactive) in experiment [4]; 2.63 µM (inactive) in experiment [5]; 5.11 µM (inactive) in experiment [6]. The GI50 was 4.32 µM (inactive) in [7]; 3.65 µM (inactive) in experiment [8]; 2.4 µM (inactive) in [9]; 3.59 µM (inactive) in experiment [10]; 1.41 µM (inactive) in experiment [11]; 10.2 µM (inactive) in [12]. Also, the GI50 in [13] is 6.05 µM (inactive); in experiment [14], > 24.1 µM (inactive); in experiment [15] it was 4.58 µM (inactive); in experiment [16], 4.09 µM (inactive); in [17], 2.86 µM (inactive); in experiment [18], 8.13 µM (inactive). The GI50 is 2.24 µM (inactive) in [19] and 3.33 µM (inactive) in experiment [20].

Consider `CSc1nc(C)c(CCOC(C)=O)c(Cl)n1`, for which the GI50 in experiment [1], in [2], in [3], in [4], in [5] and in [6] was > 100 µM (inactive) in each case. In addition, the GI50 in experiment [7], in experiment [8], in [9], in experiment [10], in [11] and in [12] was > 100 µM (inactive) each time. Also, the GI50 in experiment [13], in experiment [14], in [15], in experiment [16], in experiment [17] and in experiment [18] was > 100 µM (inactive) each time. Moreover, the GI50 in experiment [19] and in [20] was > 100 µM (inactive) each time.

Turning to `Cc1nnc(N)nc1C/C=C/C(Sc1ccc(Cl)cc1)c1ccccc1` (stereo not given), the GI50 in [1] was 3.27 µM (inactive); in experiment [2] it was 2.82 µM (inactive); in [3], 5.7 µM (inactive); in experiment [4], 0.235 µM (active); in experiment [5], 4.5 µM (inactive); in experiment [6] it was 3.64 µM (inactive). The GI50 was 5.28 µM (inactive) in [7]; 2.26 µM (inactive) in experiment [8]; 4.73 µM (inactive) in experiment [9]; 3.95 µM (inactive) in experiment [10]; 6.21 µM (inactive) in experiment [11]; 1.86 µM (inactive) in experiment [12]. The GI50 is 3.17 µM (inactive) in experiment [13]; 4.94 µM (inactive) in experiment [14]; 3.01 µM (inactive) in experiment [15]; 1.91 µM (inactive) in experiment [16]; 4.2 µM (inactive) in experiment [17]; 7.14 µM (inactive) in experiment [18]. For the same compound, the GI50 in experiment [19] was 2.74 µM (inactive); in [20], 1.52 µM (inactive).

Consider `CCOC(=O)c1cn2c(n1)sc1cc(Cl)ccc12`, for which the GI50 was 6.58 µM (inactive) in [1]; 15.6 µM (inactive) in [2]; 19.2 µM (inactive) in experiment [3]; 5.45 µM (inactive) in experiment [4]; 5.47 µM (inactive) in [5]; 18.7 µM (inactive) in experiment [6]. The GI50 is 18.1 µM (inactive) in [7]; 7.78 µM (inactive) in experiment [8]; 18.3 µM (inactive) in [9]; 4.2 µM (inactive) in experiment [10]; 2.71 µM (inactive) in experiment [11]; 72.6 µM (inactive) in experiment [12]. Besides, the GI50 in experiment [13] is 62.2 µM (inactive); in experiment [14] it was > 100 µM (inactive); in experiment [15], 30.6 µM (inactive); in experiment [16] it was 35.2 µM (inactive); in [17] it was 4.75 µM (inactive); in [18] it was > 100 µM (inactive). Moreover, the GI50 is 59.7 µM (inactive) in experiment [19] and 7.21 µM (inactive) in experiment [20].

Turning to `COc1ccc(-c2cc(O)c3cc(OC)c(OC)cc3n2)cc1OC`, the GI50 in experiment [1], in experiment [2], in experiment [3], in experiment [4], in experiment [5] and in experiment [6] was > 100 µM (inactive) each time. In addition, the GI50 was 37.7 µM (inactive) in [7]; > 100 µM (inactive) in [8]; > 100 µM (inactive) in experiment [9]; > 100 µM (inactive) in experiment [10]; > 100 µM (inactive) in experiment [11]; > 100 µM (inactive) in [12]. Moreover, the GI50 in experiment [13], in experiment [14], in experiment [15], in [16], in experiment [17] and in experiment [18] was > 100 µM (inactive) in each case. Moreover, the GI50 in experiment [19] and in experiment [20] was > 100 µM (inactive) each time.
